Experimental data: PubChem BioAssay AID192 (DTP/NCI, 2004)
Toxic doses and inconclusive results are not listed.

Tested on: BDF1 mice, B16 melanoma ip, median survival T/C
Test: NCI In Vivo Anticancer Drug Screen. Data for tumor model B16 Melanoma (intraperitoneal) in B6D2F1 (BDF1) mice
Conditions: endpoint: median survival time, higher = longer survival
Method: The antitumor activity of compounds was measured in mice bearing transplantable tumors. Survival or tumor size were measured and the results are expressed as the measurement made in the treated group (T) divided by the measurement made in the vehicle treated control group (C). The tumor model used in this assay is B16 Melanoma (intraperitoneal) in B6D2F1 (BDF1) mice

[1] = dose: 200.0 mg/kg/injection, schedule: Q01DX009 (ip), vehicle: saline
[2] = dose: 100.0 mg/kg/injection, schedule: Q01DX009 (ip), vehicle: saline with Tween-80
[3] = dose: 200.0 mg/kg/injection, schedule: Q01DX009 (ip), vehicle: saline with Tween-80
[4] = dose: 400.0 mg/kg/injection, schedule: Q01DX009 (ip), vehicle: saline with Tween-80

CC1(C)N=C(N)N=C(N)N1c1cccc(CCC(=O)Nc2ccc(S(=O)(=O)F)cc2)c1
T/C (dose: 30.0 mg/kg/injection, schedule: Q01DX009 (ip), vehicle: saline with Tween-80): 113 % of control
T/C (dose: 60.0 mg/kg/injection, schedule: Q01DX009 (ip), vehicle: saline with Tween-80): 123 % of control
T/C (dose: 120.0 mg/kg/injection, schedule: Q01DX009 (ip), vehicle: saline with Tween-80): 110 % of control

CCCN1CSC(=S)N(CCC)C1
T/C (dose: 50.0 mg/kg/injection, schedule: Q01DX009 (ip), vehicle: Klucel (hydroxypropylcellulose) (HPC)): 89 % of control
T/C (dose: 100.0 mg/kg/injection, schedule: Q01DX009 (ip), vehicle: Klucel (hydroxypropylcellulose) (HPC)): 102 % of control
T/C (dose: 200.0 mg/kg/injection, schedule: Q01DX009 (ip), vehicle: Klucel (hydroxypropylcellulose) (HPC)): 102 % of control

C[C@H]1C/C=C/[C@H]2[C@@H]3O[C@]3(C)[C@@H](C)[C@H]3[C@H](Cc4ccccc4)NC(=O)[C@]32OC(=O)O/C=C/[C@@](C)(O)C1=O
T/C (dose: 1.25 mg/kg/injection, schedule: Q01DX009 (ip), vehicle: Klucel (hydroxypropylcellulose) (HPC)): 86 % of control
T/C (dose: 2.5 mg/kg/injection, schedule: Q01DX009 (ip), vehicle: Klucel (hydroxypropylcellulose) (HPC)): 92 % of control
T/C (dose: 10.0 mg/kg/injection, schedule: Q01DX009 (ip), vehicle: Klucel (hydroxypropylcellulose) (HPC)): 89 % of control

CCCCCCCCCCCCCCCCCCNC(=S)N/N=C/c1ccc(Cl)cc1Cl
T/C (dose: 100.0 mg/kg/injection, schedule: Q01DX009 (ip), vehicle: saline): 87 % of control
T/C [1]: 95 % of control

COc1ccc(Br)cc1
T/C (dose: 50.0 mg/kg/injection, schedule: Q01DX009 (ip), vehicle: saline with Tween-80): 100 % of control
T/C [2]: 104 % of control

O=[N+]([O-])c1ccc(/C=C/c2ccc([N+](=O)[O-])cc2S(=O)(=O)O)c(S(=O)(=O)O)c1
T/C [2]: 104 % of control
T/C [3]: 95 % of control
T/C [4]: 109 % of control

O=C(O)c1nnc(C(=O)O)nn1
T/C (dose: 12.5 mg/kg/injection, schedule: Q01DX009 (ip), vehicle: water): 101 % of control
T/C (dose: 25.0 mg/kg/injection, schedule: Q01DX009 (ip), vehicle: water): 96 % of control
T/C (dose: 50.0 mg/kg/injection, schedule: Q01DX009 (ip), vehicle: water): 106 % of control
T/C (dose: 100.0 mg/kg/injection, schedule: Q01DX009 (ip), vehicle: water): 100 % of control

CCOc1ccc(NC(=O)C2CCC(C)(C(=O)O)C2(C)C)cc1 (stereo unspecified)
T/C (dose: 66.0 mg/kg/injection, schedule: Q01DX009 (ip), vehicle: saline with Tween-80): 88 % of control
T/C [2]: 100 % of control
T/C (dose: 150.0 mg/kg/injection, schedule: Q01DX009 (ip), vehicle: saline with Tween-80): 113 % of control

COc1cccc(CC(C)[N+](=O)[O-])c1 (stereo unspecified)
T/C (dose: 45.0 mg/kg/injection, schedule: Q01DX009 (ip), vehicle: saline with Tween-80): 109 % of control
T/C (dose: 90.0 mg/kg/injection, schedule: Q01DX009 (ip), vehicle: saline with Tween-80): 100 % of control
T/C (dose: 180.0 mg/kg/injection, schedule: Q01DX009 (ip), vehicle: saline with Tween-80): 86 % of control

O=c1[nH]cc(B(O)O)c(=O)[nH]1
T/C [1]: 118 % of control

O=[N+]([O-])O.[Cu+2].[NH-]CC[NH-].[NH-]CC[NH-]
T/C (dose: 3.0 mg/kg/injection, schedule: Q01DX009 (ip), vehicle: saline): 116 % of control
T/C (dose: 6.0 mg/kg/injection, schedule: Q01DX009 (ip), vehicle: saline): 122 % of control
T/C (dose: 12.0 mg/kg/injection, schedule: Q01DX009 (ip), vehicle: saline): 102 % of control
T/C (dose: 12.5 mg/kg/injection, schedule: Q01DX009 (ip), vehicle: saline): 87 % of control

Oc1ccccc1O.[O-]c1ccccc1[O-].[O-]c1ccccc1[O-].[O]=[V+2]
T/C (dose: 2.5 mg/kg/injection, schedule: Q01DX009 (ip), vehicle: saline): 88 % of control
T/C (dose: 5.0 mg/kg/injection, schedule: Q01DX009 (ip), vehicle: saline): 91 % of control
T/C (dose: 10.0 mg/kg/injection, schedule: Q01DX009 (ip), vehicle: saline): 97 % of control

CC(O)c1cc(Cl)ccc1Cl (stereo unspecified)
T/C [2]: 93 % of control
T/C (dose: 100.0 mg/kg/injection, schedule: Q04DX003 (ip), vehicle: saline with Tween-80): 107 % of control
T/C [3]: 115 % of control
T/C (dose: 200.0 mg/kg/injection, schedule: Q04DX003 (ip), vehicle: saline with Tween-80): 107 % of control
T/C [4]: 103 % of control

O=C1c2c(O)cccc2-c2nn(CCNCCO)c3ccc(NCCNCCO)c1c23
T/C (dose: 2.75 mg/kg/injection, schedule: Q01DX009 (ip), vehicle: water): 306 % of control
T/C (dose: 5.5 mg/kg/injection, schedule: Q01DX009 (ip), vehicle: water): 306 % of control
